Experimental data published in PubChem BioAssay (NCI).
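In this assay, cells in 96-well plates receive the compound at five concentrations for 48 hours. Endpoints are linearly interpolated between the surrounding concentrations. At the GI50, growth is halved. Definition used: TGI = concentration required for complete inhibition of growth.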

Columns and labels:
Assay in all cases: NCI-60 cell line screen, 48 h
NCI-H460 lung = tested on: NCI-H460 lung
EKVX NSCLC = tested on: EKVX NSCLC
RPMI-8226 leukemia = tested on: RPMI-8226 leukemia
MDA-MB-435 = tested on: MDA-MB-435
NCI-H23 lung = tested on: NCI-H23 lung
K-562 leukemia = tested on: K-562 leukemia
SF-539 CNS = tested on: SF-539 CNS
T-47D breast = tested on: T-47D breast
RXF 393 renal = tested on: RXF 393 renal
SW-620 colon = tested on: SW-620 colon
OVCAR-8 ovarian = tested on: OVCAR-8 ovarian
MALME-3M melanoma = tested on: MALME-3M melanoma
M14 melanoma = tested on: M14 melanoma
NCI-H226 lung = tested on: NCI-H226 lung
MCF7 breast = tested on: MCF7 breast
HCT-15 colon = tested on: HCT-15 colon
SF-268 CNS = tested on: SF-268 CNS
UO-31 renal = tested on: UO-31 renal
ACHN renal = tested on: ACHN renal
HCT-116 colon = tested on: HCT-116 colon
DU-145 prostate = tested on: DU-145 prostate
MDA-MB-231 breast = tested on: MDA-MB-231 breast
HOP-62 NSCLC = tested on: HOP-62 NSCLC
IGROV1 ovarian = tested on: IGROV1 ovarian
UACC-257 melanoma = tested on: UACC-257 melanoma
UACC-62 melanoma = tested on: UACC-62 melanoma
HCC-2998 colon = tested on: HCC-2998 colon

## COc1cc(/C=N/n2cnc3oc(-c4ccccc4)cc3c2=N)cc(CN2CCCCC2)c1O
NCI-H460 lung
  GI50: 1.43 µM
  TGI: 3.08 µM
EKVX NSCLC
  GI50: 1.89 µM
  TGI: 3.68 µM
RPMI-8226 leukemia
  GI50: 2.13 µM
  TGI: 5.38 µM
MDA-MB-435
  GI50: 1.64 µM
  TGI: 3.06 µM
NCI-H23 lung
  GI50: 1.81 µM
  TGI: 3.57 µM
K-562 leukemia
  GI50: 0.201 µM
  TGI: 0.458 µM
SF-539 CNS
  GI50: 1.75 µM
  TGI: 3.33 µM
T-47D breast
  GI50: 2.04 µM
  TGI: 4.62 µM
RXF 393 renal
  GI50: 1.41 µM
  TGI: 3.15 µM
SW-620 colon
  GI50: 1.91 µM
  TGI: 3.76 µM
OVCAR-8 ovarian
  GI50: 1.95 µM
  TGI: 4.7 µM
MALME-3M melanoma
  GI50: 1.79 µM
  TGI: 3.72 µM
M14 melanoma
  GI50: 1.56 µM
  TGI: 3.18 µM
NCI-H226 lung
  GI50: 2.01 µM
  TGI: 4.55 µM
MCF7 breast
  GI50: 0.512 µM
  TGI: 1.99 µM
HCT-15 colon
  GI50: 1.77 µM
  TGI: 3.49 µM
SF-268 CNS
  GI50: 1.97 µM
  TGI: 4.03 µM
UO-31 renal
  GI50: 1.39 µM
  TGI: 2.92 µM
ACHN renal
  GI50: 1.36 µM
  TGI: 2.67 µM
HCT-116 colon
  GI50: 0.31 µM
  TGI: 0.959 µM
DU-145 prostate
  GI50: 1.8 µM
  TGI: 3.32 µM
MDA-MB-231 breast
  GI50: 1.64 µM
  TGI: 3.35 µM
HOP-62 NSCLC
  GI50: 1.79 µM
  TGI: 3.77 µM
IGROV1 ovarian
  GI50: 1.69 µM
  TGI: 3.35 µM
UACC-257 melanoma
  GI50: 1.93 µM
  TGI: 3.88 µM
UACC-62 melanoma
  GI50: 1.83 µM
  TGI: 3.35 µM
HCC-2998 colon
  GI50: 1.85 µM
